System: SW13
Assay: Cell panel screen (CellTiter-Glo)
Assay type: cell-based, human
Details: SW13 (Adrenal gland), 20 micromolar, 72 hrs
In short: (§1)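 Single-concentration screen: 20 μM compound, 72 h, versus DMSO-only untreated cells. Viability read by CellTiter-Glo luminescence; % inhibition = (untreated − treated)/(untreated − no-cell background) × 100. Cells grown in recommended media plus 10% FBS at 37° C.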

SMILES	Percent Inhibition [%]
CC(C)=CCc1c2c(c(O)c3c(=O)c4c(CC=C(C)C)c(O)c(O)cc4oc13)C=CC(C)(C)O2 [bn-4, Bannaxanthone D]	94

System: HCC1569
Assay: Cell panel screen (CellTiter-Glo)
Assay type: cell-based, human
Details: HCC1569 (Breast), 20 micromolar, 72 hrs
In short: as §1

SMILES	Percent Inhibition [%]
CC(C)=CCc1c2c(c(O)c3c(=O)c4c(CC=C(C)C)c(O)c(O)cc4oc13)C=CC(C)(C)O2 [bn-4, Bannaxanthone D]	92

System: BT-474
Assay: Cell panel screen (CellTiter-Glo)
Assay type: cell-based, human
Details: BT-474 (Breast), 20 micromolar, 72 hrs
In short: as §1

SMILES	Percent Inhibition [%]
CC(C)=CCc1c2c(c(O)c3c(=O)c4c(CC=C(C)C)c(O)c(O)cc4oc13)C=CC(C)(C)O2 [bn-4, Bannaxanthone D]	83

System: T98G
Assay: Cell panel screen (CellTiter-Glo)
Assay type: cell-based, human
Details: T98G (Brain), 20 micromolar, 72 hrs
In short: as §1

SMILES	Percent Inhibition [%]
CC(C)=CCc1c2c(c(O)c3c(=O)c4c(CC=C(C)C)c(O)c(O)cc4oc13)C=CC(C)(C)O2 [bn-4, Bannaxanthone D]	97

System: TCCSUP
Assay: Cell panel screen (CellTiter-Glo)
Assay type: cell-based, human
Details: TCCSUP (Urinary bladder), 20 micromolar, 72 hrs
In short: as §1

SMILES	Percent Inhibition [%]
CC(C)=CCc1c2c(c(O)c3c(=O)c4c(CC=C(C)C)c(O)c(O)cc4oc13)C=CC(C)(C)O2 [bn-4, Bannaxanthone D]	92

System: HGC-27
Assay: Cell panel screen (CellTiter-Glo)
Assay type: cell-based, human
Details: HGC-27 (Stomach), 20 micromolar, 72 hrs
In short: as §1

SMILES	Percent Inhibition [%]
CC(C)=CCc1c2c(c(O)c3c(=O)c4c(CC=C(C)C)c(O)c(O)cc4oc13)C=CC(C)(C)O2 [bn-4, Bannaxanthone D]	86

System: C3A
Assay: Cell panel screen (CellTiter-Glo)
Assay type: cell-based, human
Details: C3A (Liver), 20 micromolar, 72 hrs
In short: as §1

SMILES	Percent Inhibition [%]
CC(C)=CCc1c2c(c(O)c3c(=O)c4c(CC=C(C)C)c(O)c(O)cc4oc13)C=CC(C)(C)O2 [bn-4, Bannaxanthone D]	63

System: J82
Assay: Cell panel screen (CellTiter-Glo)
Assay type: cell-based, human
Details: J82 (Urinary bladder), 20 micromolar, 72 hrs
In short: as §1

SMILES	Percent Inhibition [%]
CC(C)=CCc1c2c(c(O)c3c(=O)c4c(CC=C(C)C)c(O)c(O)cc4oc13)C=CC(C)(C)O2 [bn-4, Bannaxanthone D]	94

System: Colo 205
Assay: Cell panel screen (CellTiter-Glo)
Assay type: cell-based, human
Details: Colo 205, 20 micromolar, 72 hrs
In short: as §1

SMILES	Percent Inhibition [%]
CC(C)=CCc1c2c(c(O)c3c(=O)c4c(CC=C(C)C)c(O)c(O)cc4oc13)C=CC(C)(C)O2 [bn-4, Bannaxanthone D]	93

System: C8166
Assay: Cell panel screen (CellTiter-Glo)
Assay type: cell-based, human
Details: C8166 (Leukemia), 20 micromolar, 72 hrs
In short: as §1

SMILES	Percent Inhibition [%]
CC(C)=CCc1c2c(c(O)c3c(=O)c4c(CC=C(C)C)c(O)c(O)cc4oc13)C=CC(C)(C)O2 [bn-4, Bannaxanthone D]	96

System: HCC1395
Assay: Cell panel screen (CellTiter-Glo)
Assay type: cell-based, human
Details: HCC1395 (Breast), 20 micromolar, 72 hrs
In short: as §1

SMILES	Percent Inhibition [%]
CC(C)=CCc1c2c(c(O)c3c(=O)c4c(CC=C(C)C)c(O)c(O)cc4oc13)C=CC(C)(C)O2 [bn-4, Bannaxanthone D]	96

System: HEC-1-A
Assay: Cell panel screen (CellTiter-Glo)
Assay type: cell-based, human
Details: HEC-1-A (Uterus), 20 micromolar, 72 hrs
In short: as §1

SMILES	Percent Inhibition [%]
CC(C)=CCc1c2c(c(O)c3c(=O)c4c(CC=C(C)C)c(O)c(O)cc4oc13)C=CC(C)(C)O2 [bn-4, Bannaxanthone D]	76

System: NCI-H28
Assay: Cell panel screen (CellTiter-Glo)
Assay type: cell-based, human
Details: NCI-H28 (Lung), 20 micromolar, 72 hrs
In short: as §1

SMILES	Percent Inhibition [%]
CC(C)=CCc1c2c(c(O)c3c(=O)c4c(CC=C(C)C)c(O)c(O)cc4oc13)C=CC(C)(C)O2 [bn-4, Bannaxanthone D]	85

System: BT-549
Assay: Cell panel screen (CellTiter-Glo)
Assay type: cell-based, human
Details: BT-549 (Breast), 20 micromolar, 72 hrs
In short: as §1

SMILES	Percent Inhibition [%]
CC(C)=CCc1c2c(c(O)c3c(=O)c4c(CC=C(C)C)c(O)c(O)cc4oc13)C=CC(C)(C)O2 [bn-4, Bannaxanthone D]	96

System: HCC1599
Assay: Cell panel screen (CellTiter-Glo)
Assay type: cell-based, human
Details: HCC1599 (Breast), 20 micromolar, 72 hrs
In short: as §1

SMILES	Percent Inhibition [%]
CC(C)=CCc1c2c(c(O)c3c(=O)c4c(CC=C(C)C)c(O)c(O)cc4oc13)C=CC(C)(C)O2 [bn-4, Bannaxanthone D]	97

System: NCI-H1694
Assay: Cell panel screen (CellTiter-Glo)
Assay type: cell-based, human
Details: NCI-H1694 (Lung), 20 micromolar, 72 hrs
In short: as §1

SMILES	Percent Inhibition [%]
CC(C)=CCc1c2c(c(O)c3c(=O)c4c(CC=C(C)C)c(O)c(O)cc4oc13)C=CC(C)(C)O2 [bn-4, Bannaxanthone D]	97

System: ZR-75-30
Assay: Cell panel screen (CellTiter-Glo)
Assay type: cell-based, human
Details: ZR-75-30 (Breast), 20 micromolar, 72 hrs
In short: as §1

SMILES	Percent Inhibition [%]
CC(C)=CCc1c2c(c(O)c3c(=O)c4c(CC=C(C)C)c(O)c(O)cc4oc13)C=CC(C)(C)O2 [bn-4, Bannaxanthone D]	81

System: HPAF-II
Assay: Cell panel screen (CellTiter-Glo)
Assay type: cell-based, human
Details: HPAF-II (Pancreas), 20 micromolar, 72 hrs
In short: as §1

SMILES	Percent Inhibition [%]
CC(C)=CCc1c2c(c(O)c3c(=O)c4c(CC=C(C)C)c(O)c(O)cc4oc13)C=CC(C)(C)O2 [bn-4, Bannaxanthone D]	73

System: NCI-H2405
Assay: Cell panel screen (CellTiter-Glo)
Assay type: cell-based, human
Details: NCI-H2405 (Lung), 20 micromolar, 72 hrs
In short: as §1

SMILES	Percent Inhibition [%]
CC(C)=CCc1c2c(c(O)c3c(=O)c4c(CC=C(C)C)c(O)c(O)cc4oc13)C=CC(C)(C)O2 [bn-4, Bannaxanthone D]	92

System: MSTO-211-H
Assay: Cell panel screen (CellTiter-Glo)
Assay type: cell-based, human
Details: MSTO-211-H (Lung), 20 micromolar, 72 hrs
In short: as §1

SMILES	Percent Inhibition [%]
CC(C)=CCc1c2c(c(O)c3c(=O)c4c(CC=C(C)C)c(O)c(O)cc4oc13)C=CC(C)(C)O2 [bn-4, Bannaxanthone D]	94

System: HCC1937
Assay: Cell panel screen (CellTiter-Glo)
Assay type: cell-based, human
Details: HCC1937 (Breast), 20 micromolar, 72 hrs
In short: as §1

SMILES	Percent Inhibition [%]
CC(C)=CCc1c2c(c(O)c3c(=O)c4c(CC=C(C)C)c(O)c(O)cc4oc13)C=CC(C)(C)O2 [bn-4, Bannaxanthone D]	89

System: HT-1197
Assay: Cell panel screen (CellTiter-Glo)
Assay type: cell-based, human
Details: HT-1197 (Urinary bladder), 20 micromolar, 72 hrs
In short: as §1

SMILES	Percent Inhibition [%]
CC(C)=CCc1c2c(c(O)c3c(=O)c4c(CC=C(C)C)c(O)c(O)cc4oc13)C=CC(C)(C)O2 [bn-4, Bannaxanthone D]	89

System: CCF-STTG1
Assay: Cell panel screen (CellTiter-Glo)
Assay type: cell-based, human
Details: CCF-STTG1 (Brain), 20 micromolar, 72 hrs
In short: as §1

SMILES	Percent Inhibition [%]
CC(C)=CCc1c2c(c(O)c3c(=O)c4c(CC=C(C)C)c(O)c(O)cc4oc13)C=CC(C)(C)O2 [bn-4, Bannaxanthone D]	86

System: CW-2
Assay: Cell panel screen (CellTiter-Glo)
Assay type: cell-based, human
Details: CW-2 (Colon), 20 micromolar, 72 hrs
In short: as §1

SMILES	Percent Inhibition [%]
CC(C)=CCc1c2c(c(O)c3c(=O)c4c(CC=C(C)C)c(O)c(O)cc4oc13)C=CC(C)(C)O2 [bn-4, Bannaxanthone D]	97

System: Bel-7402
Assay: Cell panel screen (CellTiter-Glo)
Assay type: cell-based, human
Details: Bel-7402 (Liver), 20 micromolar, 72 hrs
In short: as §1

SMILES	Percent Inhibition [%]
CC(C)=CCc1c2c(c(O)c3c(=O)c4c(CC=C(C)C)c(O)c(O)cc4oc13)C=CC(C)(C)O2 [bn-4, Bannaxanthone D]	94

System: RL95
Assay: Cell panel screen (CellTiter-Glo)
Assay type: cell-based, human
Details: RL95 (Uterus), 20 micromolar, 72 hrs
In short: as §1

SMILES	Percent Inhibition [%]
CC(C)=CCc1c2c(c(O)c3c(=O)c4c(CC=C(C)C)c(O)c(O)cc4oc13)C=CC(C)(C)O2 [bn-4, Bannaxanthone D]	96

System: NCI-H524
Assay: Cell panel screen (CellTiter-Glo)
Assay type: cell-based, human
Details: NCI-H524 (Lung), 20 micromolar, 72 hrs
In short: as §1

SMILES	Percent Inhibition [%]
CC(C)=CCc1c2c(c(O)c3c(=O)c4c(CC=C(C)C)c(O)c(O)cc4oc13)C=CC(C)(C)O2 [bn-4, Bannaxanthone D]	98

System: NCI-H2347
Assay: Cell panel screen (CellTiter-Glo)
Assay type: cell-based, human
Details: NCI-H2347 (Lung), 20 micromolar, 72 hrs
In short: as §1

SMILES	Percent Inhibition [%]
CC(C)=CCc1c2c(c(O)c3c(=O)c4c(CC=C(C)C)c(O)c(O)cc4oc13)C=CC(C)(C)O2 [bn-4, Bannaxanthone D]	53

System: NCI-H1623
Assay: Cell panel screen (CellTiter-Glo)
Assay type: cell-based, human
Details: NCI-H1623 (Lung), 20 micromolar, 72 hrs
In short: as §1

SMILES	Percent Inhibition [%]
CC(C)=CCc1c2c(c(O)c3c(=O)c4c(CC=C(C)C)c(O)c(O)cc4oc13)C=CC(C)(C)O2 [bn-4, Bannaxanthone D]	80

System: Panc 03.27
Assay: Cell panel screen (CellTiter-Glo)
Assay type: cell-based, human
Details: Panc 03.27 (Pancreas), 20 micromolar, 72 hrs
In short: as §1

SMILES	Percent Inhibition [%]
CC(C)=CCc1c2c(c(O)c3c(=O)c4c(CC=C(C)C)c(O)c(O)cc4oc13)C=CC(C)(C)O2 [bn-4, Bannaxanthone D]	88

System: M059J
Assay: Cell panel screen (CellTiter-Glo)
Assay type: cell-based, human
Details: M059J (Brain), 20 micromolar, 72 hrs
In short: as §1

SMILES	Percent Inhibition [%]
CC(C)=CCc1c2c(c(O)c3c(=O)c4c(CC=C(C)C)c(O)c(O)cc4oc13)C=CC(C)(C)O2 [bn-4, Bannaxanthone D]	90

System: A498
Assay: Cell panel screen (CellTiter-Glo)
Assay type: cell-based, human
Details: A498 (listed under Lung), 20 micromolar, 72 hrs
In short: as §1

SMILES	Percent Inhibition [%]
CC(C)=CCc1c2c(c(O)c3c(=O)c4c(CC=C(C)C)c(O)c(O)cc4oc13)C=CC(C)(C)O2 [bn-4, Bannaxanthone D]	84

System: ChaGo-K-1
Assay: Cell panel screen (CellTiter-Glo)
Assay type: cell-based, human
Details: ChaGo-K-1 (Lung), 20 micromolar, 72 hrs
In short: as §1

SMILES	Percent Inhibition [%]
CC(C)=CCc1c2c(c(O)c3c(=O)c4c(CC=C(C)C)c(O)c(O)cc4oc13)C=CC(C)(C)O2 [bn-4, Bannaxanthone D]	93

System: NCI-H1770
Assay: Cell panel screen (CellTiter-Glo)
Assay type: cell-based, human
Details: NCI-H1770 (Lung), 20 micromolar, 72 hrs
In short: as §1

SMILES	Percent Inhibition [%]
CC(C)=CCc1c2c(c(O)c3c(=O)c4c(CC=C(C)C)c(O)c(O)cc4oc13)C=CC(C)(C)O2 [bn-4, Bannaxanthone D]	75

System: T47D
Assay: Cell panel screen (CellTiter-Glo)
Assay type: cell-based, human
Details: T47D (Breast), 20 micromolar, 72 hrs
In short: as §1

SMILES	Percent Inhibition [%]
CC(C)=CCc1c2c(c(O)c3c(=O)c4c(CC=C(C)C)c(O)c(O)cc4oc13)C=CC(C)(C)O2 [bn-4, Bannaxanthone D]	80

System: A704
Assay: Cell panel screen (CellTiter-Glo)
Assay type: cell-based, human
Details: A704 (Kidney), 20 micromolar, 72 hrs
In short: as §1

SMILES	Percent Inhibition [%]
CC(C)=CCc1c2c(c(O)c3c(=O)c4c(CC=C(C)C)c(O)c(O)cc4oc13)C=CC(C)(C)O2 [bn-4, Bannaxanthone D]	94

From PMC4450297, “Screening Active Compounds from Garcinia Species Native to China Reveals Novel Compounds Targeting the STAT/JAK Signaling Pathway” (BioMed Research International, 2015)
